Six molecules from US9850283B2, “Macrocyclic inhibitors of the PD-1/PD-L1 and CD80(B7-1)/PD-L1 protein/protein interactions” (BRISTOL-MYERS SQUIBB COMPANY, priority 2013, dated 2017) can be followed below.

Like-named read-outs stand apart in the source and are kept apart here. Positions of bridges follow the written chain, without caps; N, C: chain ends. Non-standard residues stand in square brackets, D forms with d. Residues, ends and D or L forms follow the SMILES beside them. Hyp = O=C(O)[C@@H]1C[C@@H](O)CN1; NMeF = CN[C@@H](Cc1ccccc1)C(=O)O; NMeNle = CCCC[C@H](NC)C(=O)O; NMeA = CN[C@@H](C)C(=O)O; Dab = NCC[C@H](N)C(=O)O; dAze = O=C(O)[C@H]1CCN1; Abu = CC[C@H](N)C(=O)O; Dap = NC[C@H](N)C(=O)O; Sar = CNCC(=O)O

Assay [1] addresses T1, LK35.2-hPD-L1 cells / PE-labeled PD-1-Ig (Homo sapiens, UniProt Q9NZQ7).
T1 construct: expressed in transfected cells; host or cells: LK35.2 mouse B cell line
In words: LK35.2-hPD-L1 cell binding high-content screening assay. It counts as cell-based. To be noted: cluster symbol, read-out: CBA IC50 cluster. The essentials:
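Readout: high-content imaging of PE-PD-1-Ig bound to LK35.2-hPD-L1 cells. Cells plated overnight (RPMI/10% FCS); compound + 1 nM PE-PD-1-Ig, 1 h, 37 °C; 3× dPBS wash before imaging.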

For another assay, the target named is T2, Human PD-L1/PD-1 (Homo sapiens, UniProt Q9NZQ7).
T2 construct: made in house; host or cells: HEK293T
T2 sequence (Q9NZQ7 with tags, fused parts or gaps): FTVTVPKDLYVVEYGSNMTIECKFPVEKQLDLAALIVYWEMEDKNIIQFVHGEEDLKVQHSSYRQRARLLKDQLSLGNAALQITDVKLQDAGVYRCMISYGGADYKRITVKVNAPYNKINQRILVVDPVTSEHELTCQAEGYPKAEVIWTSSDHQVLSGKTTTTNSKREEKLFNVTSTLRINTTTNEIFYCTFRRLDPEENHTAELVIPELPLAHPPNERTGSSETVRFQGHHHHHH
In words: HTRF PD-1-Ig/PD-L1-His binding assay (human PD-L1). To be noted: cluster symbol; read-out: HTRF IC50 cluster. The essentials:
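Soluble Fc-fused PD-1 and His-tagged PD-L1 (truncated before the transmembrane region) were combined in dPBS with 0.1% (w/v) BSA and 0.05% (v/v) Tween-20. Binding was read by HTRF using europium cryptate anti-Ig antibody (1 nM final) and APC anti-His antibody (20 nM final).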
In general terms: TR-FRET usually uses a lanthanide donor and a delayed reading to cut background.

The mark [2] stands for this setting: cell binding assay, cell line not given.

T1 sequence (Q9NZQ7 19-290): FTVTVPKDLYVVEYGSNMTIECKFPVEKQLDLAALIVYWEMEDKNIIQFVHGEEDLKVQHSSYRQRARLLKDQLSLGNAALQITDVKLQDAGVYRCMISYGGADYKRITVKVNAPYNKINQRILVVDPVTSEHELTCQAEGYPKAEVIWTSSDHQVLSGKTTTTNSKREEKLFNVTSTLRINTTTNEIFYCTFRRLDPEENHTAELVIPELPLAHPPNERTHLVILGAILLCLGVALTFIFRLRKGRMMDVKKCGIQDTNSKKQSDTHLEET

As for `CCCC[C@H]1C(=O)N(C)[C@@H](CCCC)C(=O)N[C@@H](CCN)C(=O)N[C@H](C(=O)NCC(N)=O)CSCC(=O)N[C@@H](Cc2ccc(O)cc2)C(=O)N(C)[C@@H](C)C(=O)N[C@@H](CC(N)=O)C(=O)N2CCC[C@H]2C(=O)N[C@@H](Cc2cnc[nH]2)C(=O)N[C@@H](CC(C)C)C(=O)N2C[C@H](O)C[C@H]2C(=O)N[C@@H](Cc2c[nH]c3ccccc23)C(=O)N[C@@H](CCN)C(=O)N[C@@H](Cc2c[nH]c3ccccc23)C(=O)N1C` [Example 5032] ({CH2CO}-Y[NMeA]NPHL[Hyp]W[Dab]W[NMeNle][NMeNle][Dab]CG-NH2; thioether N-14), the half-maximal inhibitory concentration (IC50) lay within 0.158 to 4.71 nM in assay [1] (setting [2]) and 0.385 to 6.74 nM at Human PD-L1/PD-1.
`CCCC[C@H]1C(=O)N(C)[C@@H](CCCC)C(=O)N[C@@H](CCCNC(=N)N)C(=O)N[C@H](C(=O)NCC(N)=O)CSCC(=O)N[C@@H](Cc2ccc(O)cc2)C(=O)N(C)[C@@H](C)C(=O)N[C@@H](CC(N)=O)C(=O)N2CCC[C@H]2C(=O)N[C@@H](CN)C(=O)N[C@@H](CCC(N)=O)C(=O)N2CCC[C@H]2C(=O)N[C@@H](Cc2c[nH]c3ccccc23)C(=O)N[C@@H](CO)C(=O)N[C@@H](Cc2c[nH]c3ccccc23)C(=O)N1C` [Example 6021] ({CH2CO}-Y[NMeA]NP[Dap]QPWSW[NMeNle][NMeNle]RCG-NH2; thioether N-14): the results for the IC50 (in assay [1] (setting [2]); on Human PD-L1/PD-1) were 0.158 to 4.71 nM and 0.385 to 6.74 nM, respectively.
`CCCC[C@H]1C(=O)N(C)[C@@H](COc2cccc(C)c2)C(=O)N[C@@H](CCN)C(=O)N[C@H](C(=O)NCC(N)=O)CSCC(=O)N[C@@H](Cc2ccc(O)cc2)C(=O)N(C)[C@@H](C)C(=O)N[C@@H](CC(N)=O)C(=O)N2CCC[C@H]2C(=O)N[C@@H](CN)C(=O)N[C@@H](CCC(=O)O)C(=O)N2C[C@H](O)C[C@H]2C(=O)N[C@@H](Cc2c[nH]c3ccccc23)C(=O)N[C@@H](CO)C(=O)N[C@@H](Cc2c[nH]c3ccccc23)C(=O)N1C` [Example 6030]: the concentration for half-maximal inhibition (IC50) in assay [1] (setting [2]) was in the range of 4.78 to 72.9 nM; at Human PD-L1/PD-1, 0.385 to 6.74 nM.
With `CCCC[C@H]1C(=O)N(C)[C@@H](CCCC)C(=O)N[C@@H](CCCNC(=N)N)C(=O)N[C@H](C(=O)NCC(N)=O)CSCC(=O)N[C@@H](Cc2ccc(O)cc2)C(=O)N(C)[C@@H](C)C(=O)N[C@@H](CCN)C(=O)N2CCC[C@H]2C(=O)N[C@@H](C)C(=O)N[C@@H](CCC(=O)O)C(=O)N2C[C@H](O)C[C@H]2C(=O)N[C@@H](Cc2c[nH]c3ccccc23)C(=O)N[C@@H](CO)C(=O)N[C@@H](Cc2c[nH]c3ccccc23)C(=O)N1C` [Example 1155] ({CH2CO}-Y[NMeA][Dab]PAE[Hyp]WSW[NMeNle][NMeNle]RCG-NH2; thioether N-14), the concentration for half-maximal inhibition (IC50) was in the range of 4.78 to 72.9 nM in assay [1] (cell line of CBA not given (LK35.2-hPD-L1 or 293T-hPD-L1)) and 6.76 to 30.3 nM at Human PD-L1/PD-1.
`CCCC[C@H]1C(=O)N(C)CC(=O)N[C@@H](CC(=O)O)C(=O)N[C@@H](C(C)C)C(=O)N(C)[C@@H](Cc2ccccc2)C(=O)N[C@@H](Cc2ccc(O)cc2)C(=O)N2CC[C@@H]2C(=O)N[C@@H](Cc2c[nH]c3ccccc23)C(=O)N[C@@H](Cc2ccc(O)cc2)C(=O)N[C@@H](CC(C)C)C(=O)N[C@H](C(=O)NCC(N)=O)CSCC(=O)N[C@@H](Cc2ccccc2)C(=O)N(C)[C@@H](Cc2ccccc2)C(=O)N1C` [Example 3577] ({CH2CO}-F[NMeF][NMeNle][Sar]DV[NMeF]Y[dAze]WYLCG-NH2; thioether N-13): the IC50 is 0.158 to 4.71 nM in assay [1] (setting [2]) and 0.385 to 6.74 nM at Human PD-L1/PD-1.
On the same counts, the results for `CCCC[C@H]1C(=O)N(C)[C@@H](CCCC)C(=O)N[C@@H](CC)C(=O)N[C@H](C(=O)NCC(N)=O)CSCC(=O)N[C@@H](Cc2ccc(O)cc2)C(=O)N(C)[C@@H](C)C(=O)N[C@@H](CC(N)=O)C(=O)N2CCC[C@H]2C(=O)N[C@@H](Cc2c[nH]cn2)C(=O)N[C@@H](CCC(N)=O)C(=O)N2C[C@H](O)C[C@H]2C(=O)N[C@@H](Cc2c[nH]c3ccccc23)C(=O)N[C@@H](CO)C(=O)N[C@@H](Cc2c[nH]c3ccccc23)C(=O)N1C` [Example 5078] ({CH2CO}-Y[NMeA]NPHQ[Hyp]WSW[NMeNle][NMeNle][Abu]CG-NH2; thioether N-14) are 0.158 to 4.71 nM and 0.385 to 6.74 nM.

The IC50 is the concentration that gives 50% inhibition.
